Data published in patent publication US8273890B2 (4SC AG, priority 2007, dated 2012).
pIC50: −log10 of the molar value.

Target: T1, recombinant Plk1 protein (Homo sapiens, UniProt P53350)
T1 construct: histidine tag (N); made in house; host or cells: SF9 insect cells
Experiment: Plk1 kinase activity inhibition assay (33P-ATP, alpha casein substrate, flash plates)
Type: biochemical
Conditions: enzymatic assay, 100 nM Li-ATP, 80 minutes at 30° C.
Experimental: The inhibition of Plk1 kinase activity can be measured using recombinant Plk1 protein expressed as an N-terminally histidine-tagged protein in SF9 insect cells and alpha casein as substrate. The Plk1 assay is run in 96 well plates by incubating 50 to 100 ng per well recombinant Plk1, 500 ng per well alpha casein (Sigma, # C-6780) as substrate, 10 μl of compound of invention (test compounds were dissolved as 20 mM solutions in dimethylsulfoxide (DMSO) and subsequently diluted), and 100 nM Li-ATP (including ^33P-ATP) in 100 μl of reaction buffer ([…] HEPES, pH 7.5; 3 mM MgCl2; 3 mM MnCl2; 3 μM Na-Orthovanadat; 1 mM DTT; 1 μg/ml PEG 8000) for 80 minutes at 30° C. The reactions are terminated by adding 100 μl stopping buffer (2% H3PO4 for 5 minutes) and are washed 3 times with washing solution (0.9% NaCl). Determining ^33P incorporated into the protein substrate alpha casein, the detection is based on the adhesion of the phosphorylated protein to the surface of scintillator-coated flash plates (Perkin Elmer, USA; #SMP-200). Phosphorylation of alpha casein is measured by counting the radioactivity bound to the plate for 60 sec. using a plate reader (Perkin Elmer, USA; Wallac Microbeta). By this method, the IC50 value of the Plk1 inhibition is determined as described above.

T1 sequence (P53350 whole entry): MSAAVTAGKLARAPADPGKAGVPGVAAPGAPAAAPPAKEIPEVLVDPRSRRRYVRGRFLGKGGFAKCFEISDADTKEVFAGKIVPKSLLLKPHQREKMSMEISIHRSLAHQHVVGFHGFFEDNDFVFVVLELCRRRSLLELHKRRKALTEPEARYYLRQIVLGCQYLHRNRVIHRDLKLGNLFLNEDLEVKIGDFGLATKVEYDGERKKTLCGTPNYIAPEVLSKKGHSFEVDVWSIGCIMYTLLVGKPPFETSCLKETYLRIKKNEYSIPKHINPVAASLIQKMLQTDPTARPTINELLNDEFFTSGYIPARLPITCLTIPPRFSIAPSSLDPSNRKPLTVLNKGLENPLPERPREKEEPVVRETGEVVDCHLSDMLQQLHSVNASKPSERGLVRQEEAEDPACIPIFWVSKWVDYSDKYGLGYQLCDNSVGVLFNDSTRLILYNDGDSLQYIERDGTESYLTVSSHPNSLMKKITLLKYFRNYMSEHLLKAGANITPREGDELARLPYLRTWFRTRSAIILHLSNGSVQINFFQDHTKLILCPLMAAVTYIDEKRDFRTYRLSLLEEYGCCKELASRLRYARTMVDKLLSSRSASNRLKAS

Compound | pIC50
NC(=O)c1sc(-n2cnc3ccncc32)cc1OCc1ccccc1OC(F)(F)F [Example 29, 5-(3H-imidazo[4,5-c]pyridin-3-yl)-3-{[2-(trifluoromethoxy)benzyl]oxy}thiophene-2-carboxamide] | 7.00 to 8.00
CCNCc1cc2c(cn1)ncn2-c1cc(O[C@H](C)c2ccccc2C(F)(F)F)c(C(N)=O)s1 [Example 112, 5-{6-[(ethylamino)methyl]-1H-imidazo[4,5-c]pyridin-1-yl}-3-{(1R)-1-[2-(trifluoromethyl)phenyl]ethoxy}thiophene-2-carboxamide] | 7.00 to 8.00
CC(Oc1cc(-n2cnc3cc(CN4CCN(C(=O)c5ccccc5)CC4)ncc32)sc1C(N)=O)c1ccccc1F (stereo not shown) [Example 160, 5-{6-[(4-benzoylpiperazin-1-yl)methyl]3H-imidazo[4,5-c]pyridin-3-yl}-3-[-1-(2-fluorophenyl)ethoxy]thiophene-2-carboxamide] | 5.00 to 6.00
NC(=O)c1sc(-n2cnc3cnccc32)cc1OCc1ccccc1F [Example 40, 3-[(2-fluorobenzyl)oxy]-5-(1H-imidazo[4,5-c]pyridin-1-yl)thiophene-2-carboxamide] | 7.00 to 8.00
C[C@@H](Oc1cc(-n2cnc3cc(CN)ncc32)sc1C(N)=O)c1ccccc1C(F)(F)F [Example 50, 5-[6-(aminomethyl)-3H-imidazo[4,5-c]pyridin-3-yl]-3-{(1R)-1-[2-(trifluoromethyl)phenyl]ethoxy}thiophene-2-carboxamide] | 7.00 to 8.00
C[C@@H](Oc1cc(-n2cnc3cnc(CN4CCN(C(=O)C(F)(F)F)CC4)cc32)sc1C(N)=O)c1ccccc1C(F)(F)F [Example 159, 5-(6-{[4-(trifluoroacetyl)piperazin-1-yl]methyl}-1H-imidazo[4,5-c]pyridin-1-yl)-3-{(1R)-1-[2-(trifluoromethyl)phenyl]ethoxy}thiophene-2-carboxamide] | 7.00 to 8.00
CNCc1cc2ncn(-c3cc(O[C@H](C)c4ccccc4C(F)(F)F)c(C(N)=O)s3)c2cn1 [Example 116, 5-{6-[(methylamino)methyl]3H-imidazo[4,5-c]pyridin-3-yl}-3-{(1R)-1-[2-(trifluoromethyl)phenyl]ethoxy}thiophene-2-carboxamide] | 7.00 to 8.00
CCC(Oc1cc(-n2cnc3cnc(CN4CCN(CCN(C)C)CC4)cc32)sc1C(N)=O)c1ccccc1Cl (stereo not shown) [Example 151, 3-{[1-(2-chlorophenyl)propyl]oxy}-5-[6-({4-[2-(dimethylamino)ethyl]piperazin-1-yl}methyl)-1H-imidazo[4,5-c]pyridin-1-yl]thiophene-2-carboxamide] | 6.00 to 7.00
CC(Oc1cc(-n2cnc3cc(CN4CCOCC4)ncc32)sc1C(N)=O)c1ccccc1F (stereo not shown) [Example 158, 3-[-1-(2-fluorophenyl)ethoxy]-5-[6-(morpholin-4-ylmethyl)-3H-imidazo[4,5-c]pyridin-3-yl]thiophene-2-carboxamide] | 5.00 to 6.00
CCC(Oc1cc(-n2cnc3cnc(CN4CCN(CCO)CC4)cc32)sc1C(N)=O)c1ccccc1Cl (stereo not shown) [Example 138, 3-{[1-(2-chlorophenyl)propyl]oxy}-5-(6-{[4-(2-hydroxyethyl)piperazin-1-yl]methyl}-1H-imidazo[4,5-c]pyridin-1-yl)thiophene-2-carboxamide] | 7.00 to 8.00
C[C@H](Oc1cc(-n2cnc3cnc(CO)cc32)sc1C(N)=O)c1ccccc1C(F)(F)F [Example 46, 5-[6-(hydroxymethyl)-1H-imidazo[4,5-c]pyridin-1-yl]-3-{(1S)-1-[2-(trifluoromethyl)phenyl]ethoxy}thiophene-2-carboxamide] | 6.00 to 7.00
C[C@@H](Oc1cc(-n2cnc3cnc(CN4CCN(C(=O)N(C)C)CC4)cc32)sc1C(N)=O)c1ccccc1C(F)(F)F [Example 68, 4-{[1-(5-carbamoyl-4-{(1R)-1-[2-(trifluoromethyl)phenyl]ethoxy}-2-thienyl)-1H-imidazo[4,5-c]pyridin-6-yl]methyl}-N,N-dimethylpiperazine-1-carboxamide] | > 8.00
NC(=O)c1sc(-n2cnc3ccncc32)cc1OCc1cccc(C(F)(F)F)c1 [Example 30, 5-(3H-imidazo[4,5-c]pyridin-3-yl)-3-{[3-(trifluoromethyl)benzyl]oxy}thiophene-2-carboxamide] | 6.00 to 7.00
C[C@@H](Oc1cc(-n2cnc3cnc(CN4C[C@@H]5C[C@H]4CN5)cc32)sc1C(N)=O)c1ccccc1C(F)(F)F [Example 95, 5-{6-[(1S,4S)-2,5-diazabicyclo[2.2.1]hept-2-ylmethyl]-1H-imidazo[4,5-c]pyridin-1-yl}-3-{(1R)-1-[2-(trifluoromethyl)phenyl]ethoxy}thiophene-2-carboxamide] | > 8.00
C[C@@H](Oc1cc(-n2cnc3cnc(CN4CCN(C(=O)N(C)C)CC4)cc32)sc1C(N)=O)c1ccccc1Cl [Example 128, 4-[(1-{5-carbamoyl-4-[(1R)-1-(2-chlorophenyl)ethoxy]-2-thienyl}-1H-imidazo[4,5-c]pyridin-6-yl)methyl]-N,N-dimethylpiperazine-1-carboxamide] | > 8.00
CCN1CCN(Cc2cc3c(cn2)ncn3-c2cc(OC(C)c3ccccc3OC(F)F)c(C(N)=O)s2)CC1 (stereo not shown) [Example 135, 3-{1-[2-(difluoromethoxy)phenyl]ethoxy}-5-{6-[(4-ethylpiperazin-1-yl)methyl]-1H-imidazo[4,5-c]pyridin-1-yl}thiophene-2-carboxamide] | > 8.00
CC(Oc1cc(-n2cnc3cnccc32)sc1C(N)=O)c1ccccc1C(F)(F)F (stereo not shown) [Example 14, 5-(1H-Imidazo[4,5-c]pyridin-1-yl)-3-{1-[2-(trifluoromethyl)phenyl]ethoxy}thiophene-2-carboxamide] | 7.00 to 8.00
CC(Oc1cc(-n2cnc3cc(CO)ncc32)sc1C(N)=O)c1ccccc1F (stereo not shown) [Example 163, 3-[-1-(2-fluorophenyl)ethoxy]-5-[6-(hydroxymethyl)-3H-imidazo[4,5-c]pyridin-3-yl]thiophene-2-carboxamide] | 7.00 to 8.00
C[C@@H](Oc1cc(-n2cnc3cnc(CN4CCN(C)CC4CO)cc32)sc1C(N)=O)c1ccccc1C(F)(F)F (stereo partly drawn) [Example 126, 5-(6-{[2-(hydroxymethyl)-4-methylpiperazin-1-yl]methyl}-1H-imidazo[4,5-c]pyridin-1-yl)-3-{(1R)-1-[2-(trifluoromethyl)phenyl]ethoxy}thiophene-2-carboxamide] | > 8.00
CC(Oc1cc(-n2cnc3cnc(CO)cc32)sc1C(N)=O)c1ccccc1C(F)(F)F (stereo not shown) [Example 44, 5-[6-(hydroxymethyl)-1H-imidazo[4,5-c]pyridin-1-yl]-3-{1-[2-(trifluoromethyl)phenyl]ethoxy}thiophene-2-carboxamide] | > 8.00
C[C@@H](Oc1cc(-n2cnc3cnc(CN4CCN(S(=O)(=O)c5ccccc5)CC4)cc32)sc1C(N)=O)c1ccccc1C(F)(F)F [Example 58, 5-(6-{[4-(phenylsulfonyl)piperazin-1-yl]methyl}-1H-imidazo[4,5-c]pyridin-1-yl)-3-{(1R)-1-[2-(trifluoromethyl)phenyl]ethoxy}thiophene-2-carboxamide] | 7.00 to 8.00
NC(=O)c1sc(-n2cnc3ccncc32)cc1OCc1ccc(F)cc1C(F)(F)F [Example 41, 3-{[4-fluoro-2-(trifluoromethyl)benzyl]oxy}-5-(3H-imidazo[4,5-c]pyridin-3-yl)thiophene-2-carboxamide] | 7.00 to 8.00
C[C@@H](Oc1cc(-n2cnc3cnc(CN4CCN(CCN5CCOCC5)CC4)cc32)sc1C(N)=O)c1ccccc1C(F)(F)F [Example 80, 5-(6-{[4-(2-morpholin-4-ylethyl)piperazin-1-yl]methyl}-1H-imidazo[4,5-c]pyridin-1-yl)-3-{(1R)-1-[2-(trifluoromethyl)phenyl]ethoxy}thiophene-2-carboxamide] | 7.00 to 8.00
C[C@@H](Oc1cc(-n2cnc3cnc(CN4CCN(C)CC4)cc32)sc1C(N)=O)c1ccccc1Br [Example 98, 3-[(1R)-1-(2-bromophenyl)ethoxy]-5-{6-[(4-methylpiperazin-1-yl)methyl]-1H-imidazo[4,5-c]pyridin-1-yl}thiophene-2-carboxamide] | > 8.00
NC(=O)c1sc(-n2cnc3ccncc32)cc1OCc1ccccc1OC(F)F [Example 38, 3-{[2-(difluoromethoxy)benzyl]oxy}-5-(3H-imidazo[4,5-c]pyridin-3-yl)thiophene-2-carboxamide] | 7.00 to 8.00
CC(C)N1CCN(Cc2cc3c(cn2)ncn3-c2cc(O[C@H](C)c3ccccc3C(F)(F)F)c(C(N)=O)s2)CC1 [Example 121, 5-{6-[(4-isopropylpiperazin-1-yl)methyl]-1H-imidazo[4,5-c]pyridin-1-yl}-3-{(1R)-1-[2-(trifluoromethyl)phenyl]ethoxy}thiophene-2-carboxamide] | > 8.00
CCC(Oc1cc(-n2cnc3cnc(CN4CCN(c5ccncc5)CC4)cc32)sc1C(N)=O)c1ccccc1Cl (stereo not shown) [Example 143, 3-{[1-(2-chlorophenyl)propyl]oxy}-5-{6-[(4-pyridin-4-ylpiperazin-1-yl)methyl]-1H-imidazo[4,5-c]pyridin-1-yl}thiophene-2-carboxamide] | 7.00 to 8.00
C[C@@H](Oc1cc(-n2cnc3cnc(CN4CCC(N(C)C)C4)cc32)sc1C(N)=O)c1ccccc1C(F)(F)F (stereo partly drawn) [Example 144, 5-(6-{[3-(dimethylamino)pyrrolidin-1-yl]methyl}-1H-imidazo[4,5-c]pyridin-1-yl)-3-{(1R)-1-[2-(trifluoromethyl)phenyl]ethoxy}thiophene-2-carboxamide] | > 8.00
